Assay results published in PubChem BioAssay AID1963973 (Molecular Pharmacology Branch, DTP, NCI, 2024).
pIC50: −log10 of the molar value.

Test system: 883617-216-R-J1-PDC tumor spheroids, viability
Experiment: Anticancer human tumor 883617-216-R-J1-PDC patient-derived bladder carcinoma cell line growth inhibition [PI3K]
Conditions: spheroids with HUVEC and MSC; for pIC50: curve of first compound; for viability, T/C: stronger effect = lower value
How it was run: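 Targeted small molecules plus PI3K inhibitors, half-log dose series from Cmax (default top 10 microM), were applied to heterotypic spheroids of cancer cells with HUVEC and MSCs. Viability indicated growth inhibition.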

[1] = second compound 0.00316 µM, first compound 0.0316 µM
[2] = second compound 0.00316 µM, first compound 0.1 µM
[3] = second compound 0.00316 µM, first compound 0.316 µM
[4] = second compound 0.00316 µM, first compound 1 µM
[5] = second compound 0.00316 µM, first compound 3.16 µM
[6] = second compound 0.00316 µM, first compound 10 µM
[7] = second compound 0.01 µM, first compound 0.0316 µM
[8] = second compound 0.01 µM, first compound 0.1 µM
[9] = second compound 0.01 µM, first compound 0.316 µM
[10] = second compound 0.01 µM, first compound 1 µM
[11] = second compound 0.01 µM, first compound 3.16 µM
[12] = second compound 0.01 µM, first compound 10 µM
[13] = second compound 0.0316 µM, first compound 0.0316 µM
[14] = second compound 0.0316 µM, first compound 0.1 µM
[15] = second compound 0.0316 µM, first compound 0.316 µM
[16] = second compound 0.0316 µM, first compound 1 µM
[17] = second compound 0.0316 µM, first compound 3.16 µM
[18] = second compound 0.0316 µM, first compound 10 µM
[19] = second compound 0.1 µM, first compound 0.0316 µM
[20] = second compound 0.1 µM, first compound 0.1 µM
[21] = second compound 0.1 µM, first compound 0.316 µM
[22] = second compound 0.1 µM, first compound 1 µM
[23] = second compound 0.1 µM, first compound 3.16 µM
[24] = second compound 0.1 µM, first compound 10 µM
[25] = second compound 0.316 µM, first compound 0.0316 µM
[26] = second compound 0.316 µM, first compound 0.1 µM
[27] = second compound 0.316 µM, first compound 0.316 µM
[28] = second compound 0.316 µM, first compound 1 µM
[29] = second compound 0.316 µM, first compound 3.16 µM
[30] = second compound 0.316 µM, first compound 10 µM
[31] = second compound 1 µM, first compound 0.0316 µM
[32] = second compound 1 µM, first compound 0.1 µM
[33] = second compound 1 µM, first compound 0.316 µM
[34] = second compound 1 µM, first compound 1 µM
[35] = second compound 1 µM, first compound 3.16 µM
[36] = second compound 1 µM, first compound 10 µM
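Further: spheroids exposed to agents for 7 days before the viability read.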

C=CC(=O)N1CCN(c2nc(=O)n(-c3c(C)ccnc3C(C)C)c3nc(-c4c(O)cccc4F)c(F)cc23)C(C)C1 (stereo unspecified) + CC(Nc1ccc2c(c1)OCCn1cc(N3C(=O)OCC3C(F)F)nc1-2)C(N)=O
pIC50 (second compound 0.00316 µM): < 5.00 | pIC50 (second compound 0.01 µM): 7.50 | pIC50 (second compound 0.0316 µM): > 7.50 | pIC50 (second compound 0.1 µM): > 7.50 | pIC50 (second compound 0.316 µM): > 7.50 | pIC50 (second compound 1 µM): > 7.50 | viability, T/C [1]: 59% | viability, T/C [2]: 49.2% | viability, T/C [3]: 52.5% | viability, T/C [4]: 70.5% | viability, T/C [5]: 70.8% | viability, T/C [6]: 56.5% | viability, T/C [7]: 57.8% | viability, T/C [8]: 51.8% | viability, T/C [9]: 47.7% | viability, T/C [10]: 44.5% | viability, T/C [11]: 56.5% | viability, T/C [12]: 61.1% | viability, T/C [13]: 45% | viability, T/C [14]: 38.2% | viability, T/C [15]: 30.8% | viability, T/C [16]: 40.9% | viability, T/C [17]: 42.6% | viability, T/C [18]: 49.7% | viability, T/C [19]: 25.3% | viability, T/C [20]: 21.6% | viability, T/C [21]: 19.3% | viability, T/C [22]: 25.7% | viability, T/C [23]: 30.4% | viability, T/C [24]: 25.3% | viability, T/C [25]: 13.5% | viability, T/C [26]: 13.4% | viability, T/C [27]: 11% | viability, T/C [28]: 14.6% | viability, T/C [29]: 15.5% | viability, T/C [30]: 17.3% | viability, T/C [31]: 10.3% | viability, T/C [32]: 9.98% | viability, T/C [33]: 7.7% | viability, T/C [34]: 7.88% | viability, T/C [35]: 12.1% | viability, T/C [36]: 9.67%

CC(Cn1ccc(-c2ccc(C#N)c(Cl)c2)n1)NC(=O)c1cc(C(C)O)[nH]n1 (stereo unspecified) + CC(Nc1ccc2c(c1)OCCn1cc(N3C(=O)OCC3C(F)F)nc1-2)C(N)=O
pIC50 (second compound 0.00316 µM): < 5.00 | pIC50 (second compound 0.01 µM): < 5.00 | pIC50 (second compound 0.0316 µM): < 5.00 | pIC50 (second compound 0.1 µM): > 7.50 | pIC50 (second compound 0.316 µM): > 7.50 | pIC50 (second compound 1 µM): > 7.50 | viability, T/C [1]: 86.4% | viability, T/C [2]: 85.9% | viability, T/C [3]: 84.1% | viability, T/C [4]: 80.4% | viability, T/C [5]: 90.8% | viability, T/C [6]: 73.1% | viability, T/C [7]: 84% | viability, T/C [8]: 74.7% | viability, T/C [9]: 80.1% | viability, T/C [10]: 84% | viability, T/C [11]: 90.5% | viability, T/C [12]: 86.5% | viability, T/C [13]: 64.2% | viability, T/C [14]: 79.4% | viability, T/C [15]: 79.1% | viability, T/C [16]: 80.3% | viability, T/C [17]: 74.8% | viability, T/C [18]: 67.4% | viability, T/C [19]: 46.6% | viability, T/C [20]: 49.3% | viability, T/C [21]: 55.1% | viability, T/C [22]: 48.9% | viability, T/C [23]: 43.7% | viability, T/C [24]: 44.9% | viability, T/C [25]: 25.3% | viability, T/C [26]: 27.9% | viability, T/C [27]: 27.9% | viability, T/C [28]: 26.9% | viability, T/C [29]: 26.8% | viability, T/C [30]: 23.2% | viability, T/C [31]: 15.8% | viability, T/C [32]: 15% | viability, T/C [33]: 17% | viability, T/C [34]: 14.9% | viability, T/C [35]: 17.4% | viability, T/C [36]: 17.3%

Cn1nccc1Nc1nccc(-c2ccn(C(CO)c3ccc(Cl)c(F)c3)c(=O)c2)n1 (stereo unspecified) + CC(Nc1ccc2c(c1)OCCn1cc(N3C(=O)OCC3C(F)F)nc1-2)C(N)=O
pIC50 (second compound 0.00316 µM): 5.03 | pIC50 (second compound 0.01 µM): < 5.00 | pIC50 (second compound 0.0316 µM): 6.05 | pIC50 (second compound 0.1 µM): > 7.50 | pIC50 (second compound 0.316 µM): > 7.50 | pIC50 (second compound 1 µM): > 7.50 | viability, T/C [1]: 83.2% | viability, T/C [2]: 67.5% | viability, T/C [3]: 80.3% | viability, T/C [4]: 75.6% | viability, T/C [5]: 80.1% | viability, T/C [6]: 48.1% | viability, T/C [7]: 85.6% | viability, T/C [8]: 74.7% | viability, T/C [9]: 77.3% | viability, T/C [10]: 64.2% | viability, T/C [11]: 58.2% | viability, T/C [12]: 50.1% | viability, T/C [13]: 66.5% | viability, T/C [14]: 65.9% | viability, T/C [15]: 67.1% | viability, T/C [16]: 48.1% | viability, T/C [17]: 35.9% | viability, T/C [18]: 34.2% | viability, T/C [19]: 44% | viability, T/C [20]: 45.1% | viability, T/C [21]: 38.1% | viability, T/C [22]: 37.1% | viability, T/C [23]: 27.6% | viability, T/C [24]: 22.4% | viability, T/C [25]: 25.1% | viability, T/C [26]: 22.8% | viability, T/C [27]: 17.2% | viability, T/C [28]: 16.2% | viability, T/C [29]: 15.2% | viability, T/C [30]: 9.06% | viability, T/C [31]: 14.9% | viability, T/C [32]: 13.6% | viability, T/C [33]: 12% | viability, T/C [34]: 11% | viability, T/C [35]: 9.01% | viability, T/C [36]: 6.11%
